Among the test systems are Escherichia coli UB1005; Escherichia coli SBS 363; Candida albicans MDM8; Micrococcus luteus A270.
Holding throughout (test): ≥ marks a high value that may be exact or a test limit, other limits are often not marked, values filed in µg/mL are converted to µM
Experiment [1] relates to Pseudomonas aeruginosa H1001.
For experiment [2], the system named is Pseudomonas aeruginosa H187.
Experiment [3] relates to Escherichia coli DH5alpha.
In experiment [4] the test system is Staphylococcus aureus SH1000.
For experiment [5], the system named is Bordetella bronchiseptica CUN 11844-99.
In experiment [6] the test system is Pseudomonas aeruginosa CUN 4158-02.
For experiment [7], the system named is Staphylococcus aureus ATCC 25923.
The subject of experiment [8] is Escherichia coli ATCC 25922.
In experiment [9] the test system is Bacillus subtilis ATCC 6633.
For experiment [10], the system named is Bacillus megaterium ATCC 10778.
Experiment [11] relates to Pseudomonas aeruginosa ATCC 27853.
For experiment [12], the system named is Candida tropicalis IOC 4560.
The test system of experiment [13] is Serratia marcescens ATCC 4112.
For experiment [14], the system named is Staphylococcus aureus ATCC 29213.
The subject of experiment [15] is Enterobacter cloacae beta-12.

≈ marks a conversion by molar mass, not a printed value. Where only a bound is given, the exact number is not on record here.

Usually MIC stands for the smallest concentration in the dilution series that meets the test's criterion for growth inhibition. Higher therefore signals a need for much substance. For `CC[C@H](C)[C@H](NC(=O)[C@H](C)NC(=O)[C@H](CC(N)=O)NC(=O)[C@H](CCSC)NC(=O)[C@@H]1CCCN1)C(=O)N[C@@H](CCCCN)C(=O)N[C@@H](CC(C)C)C(=O)N[C@@H](CC(C)C)C(=O)N[C@@H](CS)C(=O)N[C@@H](CCCN=C(N)N)C(=O)O` [PMNAIKLLCR], the minimal inhibitory concentration (MIC) in experiment [1] was at least 173 µM.

Regarding `CC[C@H](C)[C@H](NC(=O)[C@H](CCCN=C(N)N)NC(=O)[C@H](CCCN=C(N)N)NC(=O)[C@H](CCCN=C(N)N)NC(=O)[C@@H]1CCCN1C(=O)[C@H](CCCN=C(N)N)NC(=O)[C@@H]1CCCN1C(=O)[C@H](CCCN=C(N)N)NC(=O)[C@@H]1CCCN1C(=O)[C@H](CC(C)C)NC(=O)[C@H](Cc1ccc(O)cc1)NC(=O)[C@@H]1CCCN1C(=O)[C@@H]1CCCN1C(=O)[C@H](CCCCN)NC(=O)[C@H](CC(=O)O)NC(=O)[C@@H](N)C(C)C)C(=O)N[C@@H](Cc1ccc(O)cc1)C(=O)N[C@@H](CC(N)=O)C(=O)N[C@@H](CCCN=C(N)N)C(=O)NCC(=O)O` [VDKPPYLPRPRPRRRIYNRG], the minimal inhibitory concentration (MIC) in experiment [1] stood at 0.12 µM (≈ 0.3 µg/mL).

Regarding `CC[C@H](C)[C@H](NC(=O)[C@H](Cc1ccccc1)NC(=O)[C@H](CO)NC(=O)[C@H](CCCCN)NC(=O)[C@H](Cc1c[nH]c2ccccc12)NC(=O)[C@@H](N)CCCCN)C(=O)N[C@@H](CCCCN)C(=O)N[C@@H](CC(N)=O)C(=O)N[C@@H](CC(C)C)C(=O)N[C@@H](CCC(=O)O)C(=O)N[C@@H](CCCCN)C(=O)N[C@H](C(=O)N[C@@H](CC(C)C)C(=O)N[C@@H](CCCCN)C(=O)N1CCC[C@H]1C(=O)NCC(=O)NCC(=O)N[C@@H](CC(C)C)C(=O)N[C@@H](CC(C)C)C(=O)N[C@@H](CO)C(=O)N[C@@H](CC(N)=O)C(=O)N[C@H](C(=O)N[C@H](C(=O)N[C@H](C(=O)N[C@@H](CO)C(=O)N[C@@H](CC(C)C)C(=O)O)[C@@H](C)O)C(C)C)[C@@H](C)CC)C(C)C` [KWKSFIKNLEKVLKPGGLLSNIVTSL], the MIC in [2] amounted to 2.75 µM (≈ 8 µg/mL); in the experiment on Escherichia coli UB1005, 0.343 µM (≈ 1 µg/mL).

Turning to `CC[C@H](C)[C@H](NC(=O)[C@H](C)NC(=O)[C@H](CCCCN)NC(=O)[C@@H](NC(=O)[C@H](CC(C)C)NC(=O)[C@H](CCCCN)NC(=O)[C@H](CCCCN)NC(=O)[C@@H](NC(=O)CNC(=O)[C@H](C)NC(=O)[C@H](Cc1ccccc1)NC(=O)[C@H](Cc1ccccc1)NC(=O)[C@H](CCCCN)NC(=O)CNC(=O)[C@@H](N)Cc1c[nH]c2ccccc12)C(C)C)[C@@H](C)O)C(=O)N[C@@H](CC(C)C)C(=O)NCC(=O)N[C@@H](CCC(=O)O)C(=O)N[C@H](C(=O)N[C@@H](C)C(N)=O)[C@@H](C)CC` [WGKFFAGVKKLTKAILGEIA], the MIC in experiment [3] and in experiment [4] was 3.16 µM (≈ 6.88 µg/mL) in each case.

`CC[C@H](C)[C@H](NC(=O)[C@H](CCCN=C(N)N)NC(=O)[C@H](CCCCN)NC(=O)[C@@H]1CCCN1C(=O)[C@@H]1CCCN1C(=O)[C@H](CCCN=C(N)N)NC(=O)[C@@H]1CCCN1C(=O)[C@H](CCCN=C(N)N)NC(=O)[C@@H]1CCCN1C(=O)[C@H](CC(C)C)NC(=O)[C@H](Cc1ccc(O)cc1)NC(=O)[C@@H]1CCCN1C(=O)[C@@H]1CCCN1C(=O)[C@H](CCCCN)NC(=O)[C@H](CC(=O)O)NC(=O)[C@@H](N)C(C)C)C(=O)N[C@@H](Cc1ccc(O)cc1)C(=O)N[C@@H](CC(N)=O)C(=O)N[C@@H](CCCN=C(N)N)C(=O)NCC(=O)O` [VDKPPYLPRPRPPKRIYNRG] had an MIC in [1] of 0.112 µM (≈ 0.27 µg/mL).

Take `CC[C@H](C)[C@H](NC(=O)[C@H](C)NC(=O)[C@H](CCCCN)NC(=O)[C@@H](NC(=O)[C@H](CC(C)C)NC(=O)[C@H](CCCCN)NC(=O)[C@H](CCCCN)NC(=O)[C@@H](NC(=O)CNC(=O)[C@H](C)NC(=O)[C@H](Cc1ccccc1)NC(=O)[C@H](Cc1ccccc1)NC(=O)[C@H](CCCCN)NC(=O)CNC(=O)[C@@H](N)Cc1c[nH]c2ccccc12)C(C)C)[C@@H](C)O)C(=O)N[C@@H](CC(C)C)C(=O)N[C@@H](C)C(=O)N[C@H](C(=O)N[C@@H](CCCN=C(N)N)C(=O)N[C@@H](C)C(N)=O)C(C)C` [WGKFFAGVKKLTKAILAVRA]: the MIC in [3] was found to be 10 µM (≈ 22 µg/mL); in experiment [4], 3.16 µM (≈ 6.97 µg/mL).

For `CC(C)C[C@H](NC(=O)CNC(=O)[C@H](CCCCN)NC(=O)[C@H](Cc1ccccc1)NC(=O)[C@H](CCCCN)NC(=O)[C@H](Cc1c[nH]c2ccccc12)NC(=O)[C@H](CCCN=C(N)N)NC(=O)[C@H](Cc1ccccc1)NC(=O)[C@H](CCCCN)NC(=O)[C@H](CCCCN)NC(=O)[C@H](Cc1ccc(O)cc1)NC(=O)[C@H](CCCN=C(N)N)NC(=O)[C@H](CCCN=C(N)N)NC(=O)CN)C(=O)N[C@@H](Cc1ccccc1)C(=O)N[C@@H](CC(C)C)C(=O)N[C@@H](Cc1ccccc1)C(=O)N[C@@H](CC(C)C)C(=O)NCC(N)=O` [GRRYKKFRWKFKGLFLFLG], the MIC in experiment [5] amounted to 6.54 µM (≈ 16 µg/mL); in experiment [6] it was 26.1 µM (≈ 64 µg/mL); in [7] it was 26.1 µM (≈ 64 µg/mL); in experiment [8] it was 26.1 µM (≈ 64 µg/mL).

Consider `CC(C)C[C@H](NC(=O)[C@H](C)NC(=O)CNC(=O)[C@H](CC(C)C)NC(=O)[C@@H](N)Cc1ccccc1)C(=O)N[C@@H](Cc1c[nH]c2ccccc12)C(=O)N[C@@H](CC(N)=O)C(=O)N[C@H](C(=O)N[C@@H](C)C(=O)N[C@@H](CCCCN)C(=O)N[C@@H](CO)C(=O)N[C@@H](Cc1ccc(O)cc1)C(=O)N[C@@H](Cc1ccccc1)C(N)=O)C(C)C` [FLGALWNVAKSYF], for which the minimum inhibitory concentration (MIC) in [9] is 1.6 µM (≈ 2.42 µg/mL); in experiment [10], 3.1 µM (≈ 4.7 µg/mL); with Escherichia coli SBS 363, 6.3 µM (≈ 9.54 µg/mL); in experiment [11], above 50 µM; against Candida albicans MDM8, at least 50 µM; against Micrococcus luteus A270 it was 0.8 µM (≈ 1.21 µg/mL). In addition, the MIC in experiment [12] was 12.5 µM (≈ 18.9 µg/mL); in [13], 0.4 µM (≈ 0.606 µg/mL); in experiment [14], 3.1 µM (≈ 4.7 µg/mL); in [15] it was at least 50 µM.

For `CC(C)C[C@H](NC(=O)CN)C(=O)N[C@@H](Cc1ccccc1)C(=O)N[C@@H](CC(=O)O)C(=O)N[C@@H](CC(C)C)C(=O)N[C@@H](CC(C)C)C(=O)N[C@@H](CCCCN)C(=O)N[C@@H](CCCCN)C(=O)N[C@@H](CC(C)C)C(=O)N[C@@H](CC(C)C)C(=O)N[C@@H](CCCCN)C(=O)N[C@@H](CC(C)C)C(=O)N[C@@H](CC(C)C)C(=O)N[C@@H](CCCCN)C(N)=O` [GLFDLLKKLLKLLK], the MIC in [4] was at least 100 µM.

On to `CC[C@H](C)[C@H](NC(=O)[C@H](CC(C)C)NC(=O)[C@H](C)NC(=O)[C@@H]1CCCN1C(=O)[C@H](CC(C)C)NC(=O)CNC(=O)[C@@H](NC(=O)[C@@H](NC(=O)[C@H](CC(C)C)NC(=O)[C@@H](NC(=O)[C@H](CCCCN)NC(=O)[C@H](CCCCN)NC(=O)[C@@H](NC(=O)[C@H](C)NC(=O)[C@@H](NC(=O)[C@@H](NC(=O)[C@H](CC(C)C)NC(=O)[C@H](CCCCN)NC(=O)[C@H](CCCCN)NC(=O)[C@@H](NC(=O)[C@H](Cc1ccccc1)NC(=O)[C@H](CCC(=O)O)NC(=O)[C@H](CCCCN)NC(=O)[C@H](Cc1c[nH]c2ccccc12)NC(=O)[C@@H](N)CCCCN)[C@@H](C)CC)[C@@H](C)O)[C@@H](C)O)C(C)C)C(C)C)[C@@H](C)O)[C@@H](C)O)C(=O)N[C@@H](CO)C(=O)O` [KWKEFIKKLTTAVKKVLTTGLPALIS], for which the minimum inhibitory concentration (MIC) in [2] was 1.65 µM (≈ 4.8 µg/mL); with Escherichia coli UB1005, 0.823 µM (≈ 2.4 µg/mL).

(Values after DBAASP.)
